Where two headings read alike, the source gives them in different places.
Assays:
HOB cells = test: Cell adhesion assay (cell attachment and cell spreading), HOB cells; format: cell-based, human; settings: for inhibition at 5 µM: Homo sapiens
Procedure: To evaluate cell attachment and cell spreading exponentially growing cells were detached from substratum by trypsinisation (0.25% (v/v) trypsin in 5 mM EDTA), collected into medium containing a ˜7% (V/V) final concentration of FCS, washed twice with medium without serum and then plated (2×10^4cells/well) onto FN-coated 96-well plates with and without further immobilisation of tTG. After a maximum of 20-minute incubation (to minimise the effect of any endogenous secreted proteins) at 37° C. in a 5% CO2 atmosphere, cells were fixed in 3.7% (w/v) paraformaldehyde in PBS pH 7.4, permeabilised in 0.1% (v/v) Triton X-100 and stained with May Grunwald and Giemsa stain (Jones et al 1997, Verderio et al. 2000). In some cases cells were pre-treated for 15 hours with 1 mM cycloheximide before plating to rule out any effects of endogenous secreted adhesion molecules. Digital images of three non-overlapping fields covering the central portion of each well was captured using a video digital camera (Olympus DP10) and examined using the Image Analysis programme Scion Image (National Institute of Health, USA). A total of at least nine images of separate fields per sample were examined for a total of at least 900 cells in the FN control. The number of cell particles in each field was measured by thresholding and particle analysis setting a minimum particle size of 50 pixels. Spread cells were analysed and quantified by “density slicing” and particle analysis.
Adhesion of cells to FN was decreased by pre-incubation with RGD synthetic peptide (50 μg/ml, ˜75 ∝M, 100 μg/ml ˜150 μM, or 200 μg/ml ˜300 μM) or function blocking anti-integrin antibodies 40 μg/ml anti-β1 integrin (JB1A), 30 μg/ml anti-α5 integrin (P1D6). Detached cells (as described above) were pre-incubated in suspension (2×10^5cells/ml) in serum-free medium containing either RGD peptide or anti-integrins antibodies at 37° C. for 10 minutes in 5% CO2 atmosphere, and then seeded in the presence of the peptides.

guinea pig liver tTG = target: T1, guinea pig liver tTG (Cavia cutleri, UniProt P08587); test: tTG cross-linking activity (incorporation of biotinylated cadaverine into FN); format: biochemical
T1 construct: Purified guinea pig liver tTG was either obtained by Sigma-Aldrich or purified in the laboratory; tissue Sigma-Aldrich (or purified in the laboratory according to Leblanc et al., 1999); host or cells: guinea pig liver
T1 sequence (P08587 2-690): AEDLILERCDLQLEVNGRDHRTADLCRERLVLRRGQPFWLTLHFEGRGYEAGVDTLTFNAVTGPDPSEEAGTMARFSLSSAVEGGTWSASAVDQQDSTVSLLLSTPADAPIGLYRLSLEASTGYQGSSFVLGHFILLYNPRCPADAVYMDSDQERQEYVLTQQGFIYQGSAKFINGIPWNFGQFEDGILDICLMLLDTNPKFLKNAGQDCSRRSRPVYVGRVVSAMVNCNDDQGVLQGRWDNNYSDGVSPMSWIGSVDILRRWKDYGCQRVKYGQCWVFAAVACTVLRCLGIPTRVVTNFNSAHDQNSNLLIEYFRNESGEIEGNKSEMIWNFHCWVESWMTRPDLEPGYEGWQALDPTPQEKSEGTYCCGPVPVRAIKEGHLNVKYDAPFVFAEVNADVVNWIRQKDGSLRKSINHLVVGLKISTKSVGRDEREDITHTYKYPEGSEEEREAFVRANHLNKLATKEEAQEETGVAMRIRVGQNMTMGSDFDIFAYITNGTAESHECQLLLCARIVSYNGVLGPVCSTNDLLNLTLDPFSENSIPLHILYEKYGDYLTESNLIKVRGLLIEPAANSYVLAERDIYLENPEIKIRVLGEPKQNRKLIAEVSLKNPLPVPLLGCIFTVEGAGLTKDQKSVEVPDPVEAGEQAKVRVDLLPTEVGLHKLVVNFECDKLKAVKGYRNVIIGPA
Procedure: (§1) The wells of a 96-well plate (0.32 cm^2) were coated with human plasma FN (5 μg/ml) in 50 mM Tris-HCl, pH 7.4, […], by incubation at 4° C. for approximately 15 h. For tTG immobilisation, the FN solution was removed, the wells were washed once in 50 mM Tris-HCl, pH 7.4 and then incubated with purified guinea pig liver tTG (20 μg/ml) in PBS pH 7.4 containing 2 mM EDTA pH 7.4, 100 μl/well. For control wells coated with tTG only, the tTG solution was added directly to tissue culture plastic (TCP). After one hour-incubation at 37° C., the tTG solution was removed and wells were washed once in 50 mM Tris-HCl, pH 7.4 and once in serum-free culture medium before cell seeding. The presence of tTG immobilised on FN was confirmed by an ELISA-type assay (Jones et al. 1997), using Cub 74 (1:5000). Absorbance values were read in an ELISA plate reader at 450 nm (Tecan Spectrafluor). Confirmation that the immobilised tTG was still active as a Ca^2+-dependent ε-(γ-glutamyl)lysine crosslinker was gained by measuring tTG activity with a microtitre assay that is based on the incorporation of biotinylated cadaverine into FN in the presence of 5 mM CaCl2 and 5 mM DTT (Jones et al. 1997) and compared with the activity of free tTG standard. To confirm that the cross-linking activity was Ca^2+-dependent, 5 mM CaCl2 was replaced with 5 mM EDTA pH 7.4. Absorbance values were read at 450 nm and data were expressed as absorbance value with Ca^2+ in the reaction buffer minus background absorbance value with EDTA in the reaction buffer. Similarly to tTG, FN antigen was detected by using a modified ELISA based on a rabbit polyclonal anti-FN antibody (1/5000) followed by peroxidase-labelled anti-rabbit IgG (1/5000).

human plasma FN = test: ELISA-type assay of tTG bound to immobilised FN; format: binding; settings: 1 mM GTP-γS; ELISA using Cub 74
Procedure: as §1, with “Confirmation that the immobilised tTG was still active as a Ca^2+-dependent ε-(γ-glutamyl)lysine crosslinker was gained by measuring tTG activity with a microtitre assay that is based on the incorporation of biotinylated cadaverine into FN in the presence of 5 mM CaCl2 and 5 mM DTT (Jones et al. 1997) and compared with the activity of free tTG standard. To confirm that the cross-linking activity was Ca^2+-dependent, 5 mM CaCl2 was replaced with 5 mM EDTA pH 7.4.” left out

[1] = target: T2, tTG activity found at the HOB cell-surface (Homo sapiens, UniProt P21980); test: tTG activity at the HOB cell-surface; format: cell-based; settings: R283 treatment; data not shown
T2 construct: the low tTG activity found at the HOB cell-surface; endogenous in cells; host or cells: primary human osteoblasts (HOB)
T2 sequence (P21980 1-687): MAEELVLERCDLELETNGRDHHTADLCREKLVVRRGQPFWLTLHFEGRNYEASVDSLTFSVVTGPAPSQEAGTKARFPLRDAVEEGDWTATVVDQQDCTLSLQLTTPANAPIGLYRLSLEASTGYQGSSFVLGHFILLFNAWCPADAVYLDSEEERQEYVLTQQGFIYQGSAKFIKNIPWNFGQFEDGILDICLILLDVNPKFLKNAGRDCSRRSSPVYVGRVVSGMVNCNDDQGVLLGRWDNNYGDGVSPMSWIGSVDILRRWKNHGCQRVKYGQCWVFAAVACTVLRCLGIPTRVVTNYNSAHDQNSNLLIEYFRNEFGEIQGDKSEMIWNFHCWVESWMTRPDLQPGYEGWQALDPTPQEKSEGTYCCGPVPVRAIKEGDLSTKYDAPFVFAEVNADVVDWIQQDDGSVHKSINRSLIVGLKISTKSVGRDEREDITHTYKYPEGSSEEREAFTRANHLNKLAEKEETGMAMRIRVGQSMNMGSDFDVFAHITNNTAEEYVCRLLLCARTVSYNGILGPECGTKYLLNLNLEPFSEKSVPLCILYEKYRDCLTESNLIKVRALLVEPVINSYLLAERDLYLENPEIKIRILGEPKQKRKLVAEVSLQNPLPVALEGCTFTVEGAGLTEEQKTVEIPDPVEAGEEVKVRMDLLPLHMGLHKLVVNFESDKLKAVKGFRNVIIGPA

[2] = enzyme pre-treatment 15 mU/ml, RGD 100 μg/ml

For `Cn1c2ccccc2c2c3c(c4c5ccccc5n(CCC#N)c4c21)CNC3=O` [GO6976], the “effect on inhibition of attachment and spreading mediated by the RGD peptide” value (HOB cells; 5 μM GO6976, FN + RGD) was “significantly augment the inhibition”, the inhibition at 5 µM (HOB cells; 5 μM GO6976, RGD peptide, read-out: inhibition of attachment mediated by the tTG-FN complex) was over 90% and the inhibition at 5 µM (HOB cells; 5 μM GO6976, RGD peptide, read-out: inhibition of spreading mediated by the tTG-FN complex) was about 85%. For the same compound, the inhibition at 5 µM (HOB cells; 5 μM GO6976, control peptide RAD, read-out: inhibition of attachment on FN) was about 30% and the inhibition at 5 µM (HOB cells; 5 μM GO6976, control peptide RAD, read-out: inhibition of spreading on FN) was about 30%.
With chondroitinase ABC the “cell adhesion to FN” value (HOB cells; chondroitinase ABC 15 mU/ml) was “no significant affect”, the “RGD-independent cell attachment on tTG-FN” value (HOB cells; [2]) was “only marginally affected” and the “RGD-independent cell spreading on tTG-FN” value (HOB cells; [2]) was “did not significantly alter”.
`Nc1nc2c(ncn2[C@@H]2O[C@H](COP(=O)(O)OP(=O)(O)OP(O)(O)=S)[C@@H](O)[C@H]2O)c(=O)[nH]1` [GTP-γS] was tested, and the “RGD-independent cell attachment and spreading mediated by tTG-FN” value (HOB cells; 1 mM GTP-γS, RGD 100 μg/ml) was “partially but significantly reduced”, the “transamidating activity of FN-bound tTG” value (guinea pig liver tTG; GTP-γS, DMEM with reducing agent, data not shown) was “acts as transamidating inhibitor” and the “level of tTG immobilised on FN” value (human plasma FN) was “did not significantly alter”.
With GRADSP [RAD peptide] the “cell attachment on FN compared to untreated cells (RAD 0)” value (HOB cells; 200 μg/ml RAD control peptide) was “reduction in cell attachment”.
With `CC(=O)CSc1n(C)cc[n+]1C.[Cl-]` [R283] the “cell adhesion on FN bound to R283-inactivated tTG relative to adhesion on FN with RGD peptide” value (HOB cells; 100 μM R283) was “twice”, the “cell adhesion on FN bound to R283-inactivated tTG versus without R283” value (HOB cells; 100 μM R283, with or without RGD peptide) was “not significantly different” and the “transamidating activity of immobilised tTG” value (guinea pig liver tTG; 100 μM R283) was “completely blocked”. For the same compound, the “tTG activity at the HOB cell-surface” value [1] was “inhibited to negligible values”.
In the case of `O[C@@H](CS)[C@@H](O)CS` [DTT], the “increase of transamidating activity of FN-bound tTG” value (guinea pig liver tTG; DMEM with 5 mM DTT versus DMEM) is reported as “approx 6 fold”.

Reference: patent US20070077607A1, “Novel screening method” (priority 2003, published 2007)
